Assay results as given in patent US20220119446A1, “BIOMARKERS AND TREATMENT OF NEURONAL INJURY AND NEURODEGENERATION” (Board of Supervisons of Louisiana State University and …, priority 2018, published 2022).
“Also recorded” adds a separate entry of the source. * marks the point of attachment. Boc = CC(C)(C)OC(=O)*

Legend:
Format in all cases: cell-based, human
COX-2 promoter = COX-2 promoter luciferase reporter assay; settings: for COX-2 promoter activity (luciferase): hRPE cells, +/− 100 nM and 200 nM NPD1
Excerpt: (§1) Except TOP/FOP flash, the Luciferase activity can be standardized using a construct expressing GFP constitutively under CMV virus promoter. To assess luciferase activity, cell lysates can be obtained using Passive Lysis Buffer (Promega, Madison, Wis.) and mixed with a luciferase assay reagent (Promegam Madison, Wis.). Chemiluminescence produced by luciferase and fluorescence from GFP can be detected using Appliscan 2.3. Data can be analyzed using SkanIt 2.3 (Thermo Fisher Scientific, Waltham, Mass.).
A, Design of luciferase reporter assay performed with COX-2 promoter construct. UOS was induced by the addition of 10 ng/ml TNFα and 600 μM H2O2 in ARPE-19 cells. The concentrations of Wnt5a used was 50 ng/ml. Cells were co-transfected with the constructs driving the expression of luciferase and a plasmid that constitutively expressed green fluorescent protein for standardization. Luciferase activity is denoted in luciferase activity units (LUC) and standardized using GFP fluorescent (GFP). B, Wnt5a and IL-1β effect time course on COX-2 promoter activity. […] Luciferase activity (LUC) was measured in ARPE-19 cells in the presence of 50 ng/ml Wnt5a or 20 ng/ml IL1-β. […] Luciferase activity measured in cells incubated with 50 ng/ml Wnt5a in the presence or absence of 100 nM (+) and 200 nM (++) NPD1.

FZD5 [1] = assay: SYBR green real-time PCR of Wnt5a receptors/co-receptors in RPE cells under UOS
Method: Cell samples, total RNA was extracted by RNeasy Mini Kit (QIAGEN) following manufacturer's protocol. The purity and concentration of RNA were determined by NanoDrop ND-1000 Spectrophotometer (Thermo Fisher Scientific). cDNA first strand was obtained from one microgram of total RNA using iScript™ Reverse Transcription Supermix (Bio-Rad Laboratories, CA, USA). The resulting cDNA was used as template SYBR-green or Eva-green based real-time PCR quantification using SsoAdvance Universal Supermix (Bio-Rad Laboratories). Data was collected and analyzed using CFX Manager 3.0 software, the ΔΔCt method. Melting curve was produced for every run to assure a unique amplified product per primer set.

β-catenin = assay: TOP Flash/FOP flash luciferase reporter in hpRPE cells; settings: hpRPE cells undergoing UOS+/−NPD1
Excerpt: We tested whether or not Wnt5a activates […] using TOP Flash/FOP flash reporter system in hpRPE cells undergoing UOS+/−NPD1 (FIG. 1g).
as §1
(§2) Except TOP/FOP flash, the Luciferase activity was standardized using a construct expressing GFP constitutively under CMV virus promoter. To assess luciferase activity, cell lysates were obtained using Passive Lysis Buffer (Promega) and mixed with a luciferase assay reagent (Promega). Chemiluminescence produced by luciferase and fluorescence from GFP was detected using Appliscan 2.3. Data were analyzed using SkanIt 2.3 (Thermo Fisher Scientific).

NF-κB/p65 = NF-κB/p65 luciferase reporter assay in hpRPE cells
Method: We asked if Wnt5a activates inflammatory signaling to enhance apoptosis mediated by UOS by assessing COX-2 promoter activation (FIG. 10). […] To compare Wnt5a effects with other cytokines that enhance COX-2 expression, Interleukin-1β (IL-1β) activity was measured. […] To determine if Wnt5a activates NF-κB, hpRPE were transfected with a construct that encompassed three p65 high-affinity binding sites in tandem, driving the expression of the luciferase reporter gene (FIG. 1G). […] To assess whether or not FDZ5 and ROR2 were involved in NF-κB activation by Wnt5a, cells were co-transfected with siRNAs targeting the two receptors (FIG. 11).
as §1, §2

FZD5 [2] = assay: Western blot of FZD5 protein in hpRPE cells under UOS
Method: The pellet was re-suspended and denatured in 100 μl of 2× Laemmli sample buffer (Bio-Rad Laboratories) at 95° C. for 5 min. MCAo brain tissue and cell samples were homogenized using RIPA (Thermo Fisher Scientific) buffer supplemented with protease and phosphatase inhibitor cocktails (Sigma). The amount of 30 μg of total protein was loaded in NuPAGE® Novex® 4-12% Bis-Tris precast gels (Life Technologies Corporation) or Mini-PROTEAN TGX Stain free gels 4-15% and ran at constant 120V for 1 hour and 20 min or 250 V for 40 min respectively. Proteins were transferred to μm Nitrocellulose or LF-PVDF membrane using Bio-Rad Trans-Blot® Turbo™ System (Bio-Rad Laboratories). ECL™ Plex Fluorescent Rainbow Markers (GE Healthcare) were used as the ladder for protein's molecular weight. Membranes were blocked using 5% non-fat dry milk (Bio-Rad Laboratories) in TBS with 1% Tween® 20 (TBST-10X) for 1 hour and incubated overnight with primary antibodies. Anti-mouse or anti-rabbit secondary antibodies conjugated with Cy3 or Cy5 were used to visualize the protein of interest. Immunoblots were documented using LAS 4000 imaging system (GE Healthcare Life Sciences) or ChemiDoc MP Imaging System (BioRad Laboratories). A time course exposition was produced in each case to prevent quantification of saturated images. Densitometry data was obtained using ImageQuant™ TL software and XRS Blot Chemi Software (BioRad Laboratories).

Wnt5a = assay: Western blot of secreted (sWnt5a) and cellular (cWnt5a) Wnt5a in RPE cells under UOS
Method: To monitor transcription, translation, and secretion of Wnt5a, we performed western blot assays using cellular lysates and medium from hpRPE undergoing UOS+/−NPD1 at different time points. Medium was precipitated using Methanol/Chloroform to bring down all secreted Wnt5a.
The pellet can be re-suspended and denatured in 100 μl of 2× Laemmli sample buffer (Bio-Rad Laboratories, Hercules, Calif.) at 95° C. for 5 min. MCAo brain tissue and cell samples can be homogenized using RIPA (Thermo Fisher Scientific, Waltham, Mass.) buffer supplemented with protease and phosphatase inhibitor cocktails (Millipore Sigma, Burlington, Mass.). In embodiments, the amount of 30 μg of total protein is loaded in NuPAGE® Novex® 4-12% Bis-Tris precast gels (Life Technologies Corporation, Carlsbad, Calif.) and run at constant 120V for about 1 hour and 20 min. Proteins can be transferred to μm Nitrocellulose membrane using Bio-Rad Trans-Blot® Turbo™ System (Bio-Rad Laboratories, Hercules, Calif.). ECL™ Plex Fluorescent Rainbow Markers (GE Healthcare, Chicago, Ill.) can be used as the ladder for protein's molecular weight. Membranes can be blocked using 5% non-fat dry milk (Bio-Rad Laboratories, Hercules, Calif.) in TBS with 1% Tween® 20 (TBST-10×) (Croda International, Snaith, United Kingdom) for 1 hour and incubated overnight with primary antibodies. Anti-mouse or anti-rabbit secondary antibodies conjugated with Cy3 or Cy5 can be used to visualize the protein of interest. Immunoblots can be documented using LAS 4000 imaging system (GE Healthcare Life Sciences, Marlborough, Mass.). A time course exposition can be produced in each case to prevent quantification of saturated images. In embodiments, densitometry data are obtained using ImageQuant™ TL software (GE Healthcare Life Sciences, Marlborough, Mass.).
The pellet was re-suspended and denatured in 100 μl of 2× Laemmli sample buffer (Bio-Rad Laboratories) at 95° C. for 5 min. MCAo brain tissue and cell samples were homogenized using RIPA (Thermo Fisher Scientific) buffer supplemented with protease and phosphatase inhibitor cocktails (Sigma). The amount of 30 μg of total protein was loaded in NuPAGE® Novex® 4-12% Bis-Tris precast gels (Life Technologies Corporation) or Mini-PROTEAN TGX Stain free gels 4-15% and ran at constant 120V for 1 hour and 20 min or 250 V for 40 min respectively. Proteins were transferred to μm Nitrocellulose or LF-PVDF membrane using Bio-Rad Trans-Blot® Turbo™ System (Bio-Rad Laboratories). ECL™ Plex Fluorescent Rainbow Markers (GE Healthcare) were used as the ladder for protein's molecular weight. […] A time course exposition was produced in each case to prevent quantification of saturated images. […]

[3] = hpRPE under UOS in the presence of Wnt5a 50 ng/ml, NPD1 100 or 200 nM, Pitstop2 25 μM

time of peak COX-2 promoter activity after addition (COX-2 promoter; ARPE-19 cells, 50 ng/ml Wnt5a)	COX-2 promoter activation (luciferase) (COX-2 promoter; ARPE-19 cells, 50 ng/ml Wnt5a or 20 ng/ml IL1-β)	Molecule	COX-2 promoter activity (luciferase) (COX-2 promoter; 50 ng/ml Wnt5a)	FZD5 expression (FZD5 [1]; ARPE-19 cells, UOS gives 3-fold increase (FIG. 1F))	FZD5 mRNA (FZD5 [1]; hpRPE exposed to UOS, UOS gives 2-fold rise)	ROR1 expression (FZD5 [1]; reduced under UOS)	β-catenin activity (luciferase) (β-catenin)	NF-κB/p65 activation (luciferase) (NF-κB/p65; [3])	NF-κB activation in cells co-transfected with ROR2 and FZD5 siRNAs (NF-κB/p65; hpRPE under UOS, double knockdown)	NF-κB/p65 activation (luciferase) (NF-κB/p65; hpRPE under UOS, no Wnt5a added)	FZD5 protein abundance (FZD5 [2]; 100 nM NPD1, Wnt5a present)	FZD5 protein abundance (FZD5 [2]; 100 nM NPD1, absence of Wnt5a)	secreted Wnt5a (sWnt5a) in medium (Wnt5a; ARPE-19 cells, 600 μM H2O2 and 10 ng/ml TNFα, 6 hours, 100 nM NPD1)	secreted Wnt5a (sWnt5a) in medium (Wnt5a; hpRPE cells under UOS, Pitstop2 added 2 hours before harvesting)	FZD5 protein abundance (FZD5 [2]; Box5, even in the presence of Wnt5a 50 ng/ml)
–	–	CC/C=C\C[C@H](O)\C=C/C=C/C=C/[C@H](O)C/C=C\C/C=C\CCC(=O)O [NPD1, 10R,17S-dihydroxy-docosa-4Z,7Z,11E,13E,15Z,19Z-hexaenoic acid]	down by half; also recorded: prevents Wnt5a-induced activation of COX-2 promoter	counteracted this effect	downregulated	re-established	not significantly altered	reduced luciferase activity; also recorded: affects its activation when Wnt5a is added	not affected	did not affect NF-κB/p65; also recorded: does not prevent activation of NF-κB triggered by UOS; also recorded: did not affect NFkB/p65	steep decrease in the receptor content	no differences in the FZD5 receptor were observed	disappeared; also recorded: decreases band intensity close to control levels	decreased Wnt5a in the medium; also recorded: decreased media sWnt5a; also recorded: decreases soluble Wnt5a	–
–	–	t-Boc-NH-Met-Asp-Gly-Cys-Glu-Leu-CO2H (Boc-MDGCEL-OH) [Box5]	–	–	–	–	–	–	–	–	–	–	–	–	decreased FZD5 abundance by half of the level
4 h	induced COX-2 promoter activation	Wnt5a: Recombinant Human/Mouse Wnt-5a Protein, CHO-derived (Gln38-Lys380), R&D systems 645-WN (protein) QVVIEANSWWSLGMNNPVQMSEVYIIGAQPLCSQLAGLSQGQKKLCHLYQDHMQYIGEGAKTGIKECQYQFRHRRWNCSTVDNTSVFGRVMQIGSRETAFTYAVSAAGVVNAMSRACREGELSTCGCSRAARPKDLPRDWLWGGCGDNIDYGYRFAKEFVDARERERIHAKGSYESARILMNLHNNEAGRRTVYNLADVACKCHGVSGSCSLKTCWLQLADFRKVGDALKEKYDSAAAMRLNSRGKLVQVNSRFNSPTTQDLVYIDPSPDYCVRNESTGSLGTQGRLCNKTSEGMDGCELMCCGRGYDQFKTVQTERCHCKFHWCCYVKCKKCTEIVDQFVCK	increased COX-2 activation	–	–	–	did not affect β-catenin; also recorded: does not affect activation of β-catenin	heightens NF-κB activation; also recorded: heightened NFkB activation	–	–	–	–	–	–	–
